Results reported in patent US20050176758A1, “NOVEL COMPOUNDS AND METHODS FOR SYNTHESIS AND THERAPY” (priority 1995, published 2005).

Key:
[1] = literature reports; cited from earlier work
[2] = biological target: neuraminidase (Influenza A virus, UniProt P03468)
Description: Compositions of the invention are screened for inhibitory activity against neuraminidase by any of the conventional techniques for evaluating enzyme activity.
Enzyme Inhibition: Using the methods of screening in vitro activity described above, the following activities were observed (+10-100 μm, ++1-10 μm, +++<1.0 μm):

[3] = Water solubility of salt form; format: physicochemical; conditions: HCl salt form (dissolved in 3N HCl and lyophilized)
Description: Amino ethyl ester 262: Triphenyl phosphine (342 mg, 1.30 mmol) was added in one portion to a solution of 261 ([…], 0.80 mmol) in THF (17 mL) and water (1.6 mL). The reaction was then heated at 50° C. for 10 h, cooled and concentrated in vacuo to give a pale white solid. Purification of the crude solid by flash chromatography on silica gel (50% methanol in ethyl acetate) gave 242 mg (96%) of the amino ethyl ester 262 as a pale solid. The amino ethyl ester is dissolved in 3N HCl and lyophilized to give the corresponding water soluble HCl salt form. ^1H NMR (D2O, 300 MHz): δ 6.84 (s, 1H); 4.36-4.30 (br m, 1H); 4.24 (q, 2H, J=7.2 Hz); 4.05 (dd, 1H, J=9.0, 11.7 Hz); 3.63-3.50 (m, 2H); 2.95 (dd, 1H, J=5.7, 17.1 Hz); 2.57-2.45 (m, 1H); 1.60-1.39 (m, 4H); 1.27 (t, 3H, J=7.2 Hz); 0.89-0.80 (m, 6H).

Chain of neuraminidase (P03468 whole entry): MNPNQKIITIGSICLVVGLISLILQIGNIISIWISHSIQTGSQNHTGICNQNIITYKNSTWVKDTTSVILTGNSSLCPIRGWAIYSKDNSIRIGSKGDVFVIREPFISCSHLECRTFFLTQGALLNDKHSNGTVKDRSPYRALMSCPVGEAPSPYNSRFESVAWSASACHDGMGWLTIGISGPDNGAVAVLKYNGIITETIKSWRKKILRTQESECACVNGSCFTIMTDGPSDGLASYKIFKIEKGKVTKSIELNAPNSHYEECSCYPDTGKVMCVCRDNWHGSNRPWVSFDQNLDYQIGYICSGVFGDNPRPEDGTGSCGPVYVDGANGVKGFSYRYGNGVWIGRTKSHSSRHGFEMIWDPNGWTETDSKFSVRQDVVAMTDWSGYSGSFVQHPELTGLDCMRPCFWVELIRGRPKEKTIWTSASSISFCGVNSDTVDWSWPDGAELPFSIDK

SMILES | IC50 [2] | other results
CC(=O)N[C@H]1[C@H]([C@H](O)[C@H](O)CO)OC(C(=O)O)=C[C@@H]1N=C(N)N [GG167, 4-guanidino-2,4-dideoxy-2,3-dehydro-N-acetylneuraminic acid] | – | Toxicity [1]: nontoxic
CC(=O)N[C@@H]1[C@@H](N)CC(C(=O)O)=C[C@H]1OCC(O)CO (stereo partly shown) [compound 8] | 1000 to 10000 nM | –
CC(=O)NC1C(O)C=C(C(=O)O)CC1NC(=N)N (stereo not shown) [compound 94] | < 1000 nM | –
CCOC(=O)C1=CC(OC(CC)CC)C(NC(C)=O)C(N)C1 (stereo not shown) [compound 262] | – | Water solubility [3]: water soluble
